Consider 16 molecules from ChEMBL document CHEMBL1136563, “Pharmacophore-based discovery of substituted pyridines as novel dopamine transporter inhibitors” (Bioorg Med Chem Lett, 2003).

By Ki is commonly meant a dissociation constant, usually derived from enzyme kinetics or from competition with a known ligand.

The target in test [1] is Sodium-dependent dopamine transporter (Rattus norvegicus, UniProt P23977). The experiment in a line: Inhibition of reuptake of DA into striatal nerve endings (synaptosomes). The class given is subcellular, Brain.
Test [2] has as its target T1, Sodium-dependent dopamine transporter (Homo sapiens, UniProt Q01959). The experiment in a line: Inhibition of [3H]DA uptake evaluated at the dopamine transporter.
Test [3] deals with T1, Sodium-dependent dopamine transporter. The experiment in a line: Affinity to displace binding of [3H]WIN-35428 to dopamine transporter.
The target of test [4] is Sodium-dependent noradrenaline transporter (Homo sapiens, UniProt P23975). The experiment in a line: Inhibition of [3H]-NE uptake evaluated at the monoamine transporter (NET).
Test [5] concerns the target Sodium-dependent serotonin transporter (Homo sapiens, UniProt P31645). The experiment in a line: Inhibition of [3H]-5-HT uptake evaluated at the Serotonin transporter.

`c1ccc(-c2nnnn2-c2cnc3ccccc3c2)cc1`: in test [1], the Ki was > 1000 nM.
Turning to `CN=C=C(c1ccc(Cl)cc1)c1ccc(Cl)cc1`, in test [1], the Ki is > 1000 nM.
In test [1], `c1ccc(Cc2ccnc(Cc3ccccc3)c2)cc1` showed a Ki of 2300 nM.
For the molecule `c1ccc2c(-c3ccncc3)c3ccccc3cc2c1`, the Ki in test [2], in test [3], in test [4] and in test [5] was > 10000 nM in each case.
Take `c1ccc(C(c2ccccc2)c2ccccn2)cc1`: the Ki was determined as 742 nM in test [3], 5530 nM in test [4] and 35000 nM in test [5].
Take `c1ccc(C(c2ccccc2)c2ccncc2)cc1`: the Ki came out at 255 nM in test [2]; 200 nM in test [1]; 79 nM in test [3]; 3460 nM in test [4]; 1160 nM in test [5].
Regarding `Clc1ccccc1/C=C(/c1ccccc1)c1ccccn1`, the Ki in test [1] is > 1000 nM.
For the molecule `Clc1cnc(-c2ccccc2)n1Cc1ccccc1`, the Ki in test [1] is > 1000 nM.
`c1cncc(-c2c3ccccc3cc3ccccc23)c1`: the Ki in test [2], in test [3], in test [4] and in test [5] was > 10000 nM each time.
Take `c1ccc(C(c2ccccc2)c2cccnc2)cc1`: the Ki in test [2] came to 860 nM; in test [3], 780 nM; in test [4], 7320 nM; in test [5] it was 12600 nM.
For the molecule `c1ccc(CC(c2ccccc2)c2ccncc2)cc1` (configuration not stated), the Ki amounted to 263 nM in test [2], 99 nM in test [3], 393 nM in test [4] and 910 nM in test [5].
Turning to `c1ccc(Cc2ccncc2)cc1`, the Ki in test [2], in test [3], in test [4] and in test [5] was > 10000 nM in each case.
On to `c1ccc2cc(-c3nnnn3-c3cnc4ccccc4c3)ccc2c1`, for which the Ki in test [1] is > 1000 nM.
Take `N#Cc1c(Cl)nnc(-c2ccccc2)c1-c1ccccc1`: in test [1], the Ki was > 1000 nM.
For the molecule `CN=C=C(c1ccccc1)c1ccccc1`, the Ki in test [1] was > 1000 nM.
The same measure, in the same setting: to `CN(C)CCC(C#N)(c1ccccc1)c1ccccc1` belongs > 1000 nM.
